Data set [1] can be described thus: Oral glucose tolerance test using mice. The settings on record: Mus musculus, 0.5 h, 3 mg/kg orally 5 minutes prior to oral glucose loading (2 g/kg), 30 minutes after glucose loading, relative to control group, male ICR or C57BL/6 J mice, read-out: blood glucose-lowering rate. Format: in vivo. The source says: Test 2: Oral Glucose Tolerance Test Using Mice
This test is intended to evaluate an inhibitory action of a test compound on elevation of the blood glucose level after glucose loading, using mice. A test method is described hereinafter.
Male ICR or C57BL/6 J mice (6 weeks old, available from CLEA JAPAN, Inc.) pre-bred for one week were fasted overnight and used as test animals. A test compound was suspended in 10% PEG-60 Hydrogenated Castor Oil (HCO-60) aqueous solution, and was orally administered (3 mg/kg) to animals 5 minutes prior to oral glucose loading (2 g/kg). The control group was given a 10% HCO-60 aqueous solution. According to the following equation, a blood glucose-lowering rate (%) at 30 minutes after glucose loading was calculated for the test compound-treated group relative to the control group. An increase in the blood glucose level of the test compound-treated group and an increase in the blood glucose level of the control group were taken as A and B, respectively. Blood glucose-lowering rate (%)=100−[(A/B)×100]

The next data set has as its system NADPH oxidase. Put plainly: Inhibitory activity on ROS production derived from NADPH oxidase (HUVECs, nitrotetrazolium blue). The note with it: 1.0 μM test compound, 25 mM glucose, 200 μM NADPH, 2 hours. Format: cell-based, Human. The protocol: Test 1: Inhibitory Activity on ROS Production Derived from NADPH Oxidase
This activity was measured by using Human Umbilical Vein Endothelial Cells (HUVECs). The test method is as follows.
3×10^4 cells/well (100 μL) of HUVECs were seeded into a 96-well plate coated with collagen. The culture medium was MCDB131 medium containing 10% fetal bovine serum, 2 mM glutamine, 100 U/mL penicillin, 100 U/mL streptomycin, and 10 ng/mL recombinant human basic-FGF. On the next day, the culture medium was removed by an aspirator, and 100 μL/well of phosphate buffered saline containing 25 mM glucose, 200 μM NADPH, 0.2% nitrotetrazolium blue, and test compounds followed by culturing at 37° C. Nitrotetrazolium blue reacts with intracellularly produced ROS and turns into a water-insoluble blue pigment. After 2 hours, the supernatant was discarded, and the wells were washed three times with phosphate buffered physiological saline. Then, 100 μL/well of 90% DMSO water containing 0.04M sodium hydroxide was added to each well to completely dissolve the pigment, and an absorbance at a wavelength of 715 nm was measured. By taking an absorbance with no addition of a test compound as A, an absorbance […], and an absorbance with addition of glucose, NADPH and a test compound as C, ROS production inhibitory rate was calculated according to the following equation. Inhibition rate (%)=[…]
Abbreviation “Ex” in the table represents Example Compound No. which will follow, and abbreviation “Inh” represents an ROS production inhibition rate. It was confirmed that the compounds of the formula (I) of the present invention have an excellent ROS production inhibitory activity.

Structures are written as SMILES.

`Cc1c(COc2cccc(OCCC(C)(C)O)c2)[nH]c2ccccc2c1=O` [Ex 141]: the inhibition in vivo at 3 mg/kg in data set [1] lay within 70 to 105%.

As for `Cc1c(COc2cc(OCC3CCOCC3)ccn2)[nH]c2ccc(F)cc2c1=O` [Ex 153], the inhibition in vivo at 3 mg/kg in data set [1] is 70 to 105%.

Take `COC(C)(C)CCOc1ccnc(OCc2[nH]c3ccccc3c(=O)c2C)c1` [Ex 186]: in data set [1], the inhibition in vivo at 3 mg/kg lay within 70 to 105%.

For the compound `Cc1c(CO[C@H]2CC[C@H](NC(=O)CC(C)(C)O)CC2)[nH]c2ccccc2c1=O` [Ex 248], in data set [1], the inhibition in vivo at 3 mg/kg is 89%.

Take `Cc1c(COC(=O)NCCCc2ccccc2)[nH]c2ccccc2c1=O` [Ex 284]: the inhibition in vivo at 3 mg/kg in data set [1] was 70 to 105%. In the data set on NADPH oxidase, the “Inh(%) ROS production inhibition rate” value is 64.2 ± 0.1%.

One may read the melting point as the temperature, or range, at which the solid turns liquid. `Cc1c(COc2cc(OCCC(C)(C)O)ccn2)[nH]c2ccccc2c1=O` [Example 4, 2-({[4-(3-hydroxy-3-methylbutoxy)pyridin-2-yl]oxy}methyl)-3-methylquinolin-4(1H)-one] had a melting point of 127 to 130 °C. In data set [1], the inhibition in vivo at 3 mg/kg is 70 to 105%. Moreover, the “Inh(%) ROS production inhibition rate” value in the data set on NADPH oxidase was 84.7 ± 2.1%.

`Cc1c(COc2cc(OCCC3CCOCC3)ccn2)[nH]c2ccccc2c1=O` [Example 8, 3-methyl-2-[({4-[2-(tetrahydro-2H-pyran-4-yl)ethoxy]pyridin-2-yl}oxy)methyl]quinolin-4(1H)-one]: the melting point lay within 137 to 138 °C. Moreover, the inhibition in vivo at 3 mg/kg in data set [1] was 70 to 105%. The “Inh(%) ROS production inhibition rate” value in the data set on NADPH oxidase is 91.5 ± 4.7%.

Values taken from patent US8367702B2, “Quinolone derivative” (Astellas Pharma Inc., priority 2007, dated 2013).
